Laboratory results reported in article PMC9049205 (RSC Advances, 2020).
Read-outs that look alike come from different tables or passages of the source.

Columns and labels:
[1] = tested on: influenza virus (A/PR/8/34 H1N1 strain); assay: organism not typed; format: cell-based, Influenza A/PR/8/34 (H1N1); conditions: for EC50: 48 h, read-out: Anti-influenza virus activity EC50
avian influenza A H5N1 = conditions: mouse, in vivo; cited from earlier work
influenza A virus = conditions: in vitro; cited from earlier work

Cc1onc(-c2ccccc2)c1C(=O)N1CCC(c2ccc([N+](=O)[O-])cc2Cl)CC1 [Compound 1a, (4-(2-Chloro-4-nitrophenyl)piperidin-1-yl)(5-methyl-3-phenylisoxazol-4yl)methanone]
SI (selectivity index: CC50/EC50) [1]: 22.02 | anti-influenza activity (in words) [1]: excellent activity than ribavirin | EC50 ([1]; MDCK): 0.898 ± 0.004 µM

COc1ccccc1-c1noc(C)c1C(=O)N1CCC(c2ccc([N+](=O)[O-])cc2Cl)CC1 [Compound 1b, (4-(2-Chloro-4-nitrophenyl)piperidin-1-yl)(3-(2-methoxyphenyl)-5-methylisoxazol-4-yl)methanone]
SI (selectivity index: CC50/EC50) [1]: 272.93 | anti-influenza activity (in words) [1]: excellent activity than ribavirin | EC50 ([1]; MDCK): 0.253 ± 0.001 µM

CSc1ccccc1-c1noc(C)c1C(=O)N1CCC(c2ccc([N+](=O)[O-])cc2Cl)CC1 [Compound 1c, (4-(2-Chloro-4-nitrophenyl)piperidin-1-yl)(5-methyl-3-(2-(methylthio)phenyl)isoxazol-4-yl)methanone]
SI (selectivity index: CC50/EC50) [1]: 398.41 | anti-influenza activity (in words) [1]: excellent activity than ribavirin | EC50 ([1]; MDCK): 0.502 ± 0.002 µM

Cc1onc(-c2cccc(Cl)c2Cl)c1C(=O)N1CCC(c2ccc([N+](=O)[O-])cc2Cl)CC1 [Compound 1d, (4-(2-Chloro-4-nitrophenyl)piperidin-1-yl)(3-(2,3-dichlorophenyl)-5-methylisoxazol-4-yl)methanone]
anti-influenza activity (in words) [1]: moderate activity | EC50 ([1]; MDCK): 21.572 ± 0.015 µM

COc1nc2ccccc2cc1-c1noc(C)c1C(=O)N1CCC(c2ccc([N+](=O)[O-])cc2Cl)CC1 [Compound 1e, (4-(2-Chloro-4-nitrophenyl)piperidin-1-yl)(3-(2-methoxyquinolin-3-yl)-5-methylisoxazol-4-yl)methanone]
SI (selectivity index: CC50/EC50) [1]: 2.52 | anti-influenza activity (in words) [1]: moderate activity | EC50 ([1]; MDCK): 9.905 ± 0.01 µM

COc1ccc(-c2noc(C)c2C(=O)N2CCC(c3ccc([N+](=O)[O-])cc3Cl)CC2)c(OC)c1 [Compound 1f, (4-(2-Chloro-4-nitrophenyl)piperidin-1-yl)(3-(2,4-dimethoxyphenyl)-5-methylisoxazol-4-yl)methanone]
SI (selectivity index: CC50/EC50) [1]: 13.68 | anti-influenza activity (in words) [1]: excellent activity than ribavirin | EC50 ([1]; MDCK): 2.036 ± 0.009 µM

Cc1onc(-c2ccccc2F)c1C(=O)N1CCC(c2ccc([N+](=O)[O-])cc2Cl)CC1 [Compound 1g, (4-(2-Chloro-4-nitrophenyl)piperidin-1-yl)(3-(2-fluorophenyl)-5-methylisoxazol-4-yl)methanone]
SI (selectivity index: CC50/EC50) [1]: 12.27 | anti-influenza activity (in words) [1]: excellent activity than ribavirin | EC50 ([1]; MDCK): 1.356 ± 0.008 µM

Cc1onc(-c2ccco2)c1C(=O)N1CCC(c2ccc([N+](=O)[O-])cc2Cl)CC1 [Compound 1h, (4-(2-Chloro-4-nitrophenyl)piperidin-1-yl)(3-(furan-2-yl)-5-methylisoxazol-4-yl)methanone]
anti-influenza activity (in words) [1]: moderate activity | EC50 ([1]; MDCK): 16.226 ± 0.012 µM

NC(=O)c1ncn([C@@H]2O[C@H](CO)[C@@H](O)[C@H]2O)n1 [Ribavirin, reference compound]
SI (selectivity index: CC50/EC50) [1]: 6.37 | EC50 ([1]; MDCK): 9.891 ± 0.06 µM

Cc1onc(-c2ccccc2)c1C(=O)N1CCN(c2ccc([N+](=O)[O-])cc2Cl)CC1 [nucleozin, Nucleozin]
protection of mice challenged with lethal doses of avian influenza A H5N1 (avian influenza A H5N1): protected mice | median effective concentration (EC50), influenza A virus replication (influenza A virus): nanomolar

(4-(2-Chloro-4-nitrophenyl)piperidin-1-yl)(3-methyl-5-styrylisoxazol-4-yl)methanone [Compound 1i]
anti-influenza activity (in words) [1]: moderate activity | EC50 [1]: 34.483 ± 0.014 µM

(5-Benzyl-3-methylisoxazol-4-yl)(4-(2-chloro-4-nitrophenyl) piperidin-1-yl)methanone [Compound 1j]
anti-influenza activity (in words) [1]: moderate activity | EC50 [1]: 19.41 ± 0.012 µM
